Source: paper PMC6681697, “One-Step ^18F-Labeling and Preclinical Evaluation of Prostate-Specific Membrane Antigen Trifluoroborate Probes for Cancer Imaging” (Journal of Nuclear Medicine, 2019)

Experiments:
[1] = Distribution coefficient (LogD7.4), shake flask method; format: physicochemical; conditions: n-octanol / phosphate buffer 0.1 M pH 7.4; n = 3
Experimental: LogD7.4 values were measured using the shake flask method. Briefly, an aliquot of ^18F-labeled tracer was added to a vial containing 2.5 mL of n-octanol and 2.5 mL of phosphate buffer (0.1 M, pH 7.4). The mixture was vortexed for 2 min and then centrifuged at 3,000g for 10 min. A sample of the n-octanol (0.1 mL) and buffer (0.1 mL) layers was counted using a γ-counter. Values of LogD7.4 were calculated using the following equation: LogD7.4 = log10 [(counts in n-octanol phase)/(counts in buffer phase)].

LNCaP xenografts = assay: Ex vivo biodistribution and blocking studies in mice bearing LNCaP xenografts; conditions: for tumor uptake: LNCaP tumor
Experimental: Imaging and biodistribution experiments were performed using NODSCID IL2RγKO male mice. All experiments were conducted according to the guidelines established by the Canadian Council on Animal Care and approved by the Animal Ethics Committee of the University of British Columbia. Mice were anesthetized by inhalation with 2% isoflurane in oxygen and implanted subcutaneously with 1 × 10^7 LNCaP cells behind the left shoulder. The mice were imaged or used in biodistribution studies once the tumor reached 5–8 mm in diameter (5–6 wk).
For biodistribution and blocking studies, the mice were injected with 1–3 MBq of radiotracer. At 60 min, the mice were anesthetized with 2% isoflurane inhalation and euthanized by CO2 inhalation. Blood was withdrawn by cardiac puncture, and the organs and tissues of interest were collected, weighed, and counted using an automatic γ-counter (PerkinElmer). Uptake values were expressed as the percentage of the injected dose per gram of tissue (%ID/g).
A standard 1-way ANOVA was performed to determine whether statistically significant differences in tumor uptake occurred between radiotracers. Each radiotracer was compared with ^18F-DCFPyL using the Dunnett test (a many-to-one t test comparison). This analysis was also performed for kidney and blood activity and for tumor-to-blood and tumor-to-muscle ratios. Reported P values were adjusted for multiple comparisons. The analysis was performed using Prism 8 (GraphPad). […]
Statistical analyses were performed using GradPad prism 7. Multiple t tests were performed to compare biodistribution in unblocked and blocked mice, multiple comparisons were corrected using the Holm-Sidak method. The difference was considered statistically significant when p value was < 0.05.
Supplemental Table 1 – Complete biodistribution study for compounds [18F]1–3 […]
Tissue 1h 1h blocked 1h 1h blocked 1h 1h blocked
(%ID/g) n = 8 n = 4 n = 6 n = 4 n = 8 n = 5 […]
(1 picture or pasted object on this page, not shown here)

PSMA = target: T1, PSMA (Homo sapiens, UniProt Q04609); assay: In vitro competition binding assay on LNCaP cells with ^18F-DCFPyL as radioligand
T1 construct: because it expresses PSMA endogenously and is commonly used to evaluate PSMA-targeting radiotracers; endogenous in cells; host or cells: LNCaP cells
Experimental: LNCaP cells were plated onto a 24-well poly-D-lysine coated plate for 48 h (400,000/well). […] Nonspecific binding was determined in the presence of 10 μM unlabeled DCFPyL. The assay mixtures were incubated for 1 h at 37°C with gentle agitation followed by 2 washes with cold HEPES buffered saline. A trypsin solution (0.25%, 400 μL) was then added to each well to harvest the cells. Radioactivity was measured by γ-counting, and Ki values were calculated using the “1 site—fit Ki” built-in model in Prism 7 (GraphPad).

[2] = 1 h after injection, 1-way ANOVA, Dunnett test
[3] = 1 h blocked (coinjection of DCFPyL 0.5 mg)

T1 sequence (Q04609 whole entry): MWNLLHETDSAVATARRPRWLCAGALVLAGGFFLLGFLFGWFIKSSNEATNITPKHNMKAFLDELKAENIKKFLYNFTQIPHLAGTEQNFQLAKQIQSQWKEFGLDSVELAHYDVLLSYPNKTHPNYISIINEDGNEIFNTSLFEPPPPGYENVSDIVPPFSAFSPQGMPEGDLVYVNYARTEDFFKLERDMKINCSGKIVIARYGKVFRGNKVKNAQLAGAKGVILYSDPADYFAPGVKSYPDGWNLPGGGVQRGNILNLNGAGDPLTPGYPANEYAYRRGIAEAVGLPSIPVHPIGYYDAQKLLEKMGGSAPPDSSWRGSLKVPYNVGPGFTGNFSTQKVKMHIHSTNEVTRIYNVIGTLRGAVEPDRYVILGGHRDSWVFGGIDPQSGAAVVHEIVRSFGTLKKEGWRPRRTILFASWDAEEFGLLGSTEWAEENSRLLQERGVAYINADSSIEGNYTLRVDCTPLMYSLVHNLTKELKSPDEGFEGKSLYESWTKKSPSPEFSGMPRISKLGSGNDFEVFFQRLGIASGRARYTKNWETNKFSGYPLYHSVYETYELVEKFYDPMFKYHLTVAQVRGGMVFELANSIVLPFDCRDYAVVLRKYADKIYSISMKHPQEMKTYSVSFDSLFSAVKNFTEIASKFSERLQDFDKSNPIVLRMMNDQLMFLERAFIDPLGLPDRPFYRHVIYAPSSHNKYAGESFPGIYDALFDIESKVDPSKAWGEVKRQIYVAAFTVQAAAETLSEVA

## C[N+](C)(Cc1cn(Cc2ccc(C(=O)NCCCC[C@H](NC(=O)N[C@@H](CCC(=O)O)C(=O)O)C(=O)O)cn2)nn1)C[B-](F)(F)F [^18F-3]
[1]
  logD at 2 min: -4.01 ± 0.14
LNCaP xenografts; 1 h after injection, unblocked
  T/B (tumor-to-blood ratio): 9.68 ± 4.53
  T/K (tumor-to-kidney ratio): 0.11 ± 0.08
  T/M (tumor-to-muscle ratio): 29.00 ± 12.40
  adrenal uptake: 1.35 ± 0.52 %ID/g
  blood uptake: 0.50 ± 0.16 %ID/g
  bone uptake: 0.20 ± 0.06 %ID/g
  brain uptake: 0.03 ± 0.01 %ID/g
  fat uptake: 0.35 ± 0.15 %ID/g
  heart uptake: 0.19 ± 0.07 %ID/g
  intestine uptake: 0.28 ± 0.07 %ID/g
  kidney uptake: 51.80 ± 24.10 %ID/g
  liver uptake: 1.17 ± 0.28 %ID/g
  lung uptake: 0.66 ± 0.19 %ID/g
  muscle uptake: 0.17 ± 0.07 %ID/g
  pancreas uptake: 0.27 ± 0.13 %ID/g
  spleen uptake: 0.84 ± 0.52 %ID/g
  stomach uptake: 0.08 ± 0.04 %ID/g
  testes uptake: 0.30 ± 0.09 %ID/g
LNCaP xenografts; [2]
  kidney accumulation compared with ^18F-DCFPyL: lower kidney accumulation
  tumor uptake compared with ^18F-DCFPyL: lower tumor uptake than ^18F-DCFPyL
LNCaP xenografts; [3]
  T/B (tumor-to-blood ratio): 1.17 ± 0.70
  T/K (tumor-to-kidney ratio): 0.16 ± 0.05
  T/M (tumor-to-muscle ratio): 3.54 ± 1.43
  adrenal uptake: 0.24 ± 0.07 %ID/g
  blood uptake: 0.30 ± 0.10 %ID/g
  bone uptake: 0.16 ± 0.06 %ID/g
  brain uptake: 0.02 ± 0.00 %ID/g
  fat uptake: 0.16 ± 0.10 %ID/g
  heart uptake: 0.12 ± 0.06 %ID/g
  intestine uptake: 0.23 ± 0.06 %ID/g
  kidney uptake: 2.12 ± 0.73 %ID/g
  liver uptake: 1.25 ± 0.17 %ID/g
  lung uptake: 0.30 ± 0.11 %ID/g
  muscle uptake: 0.09 ± 0.03 %ID/g
  pancreas uptake: 0.08 ± 0.03 %ID/g
  spleen uptake: 0.09 ± 0.05 %ID/g
  stomach uptake: 0.06 ± 0.02 %ID/g
  testes uptake: 0.10 ± 0.03 %ID/g
  tumor uptake: 0.35 ± 0.21 %ID/g
LNCaP xenografts; 1 h after injection, unblocked, listed as 3
  tumor uptake: 4.4 ± 0.95 %ID/g
LNCaP xenografts; 1 h after injection, unblocked, listed as [18F]3
  tumor uptake: 4.36 ± 0.95 %ID/g
PSMA
  Ki: 25.9 ± 5.7 nM

## O=C(O)CC[C@H](NC(=O)N[C@@H](CCCCNC(=O)c1ccc(Cn2cc(C[n+]3ccc([B-](F)(F)F)cc3)nn2)nc1)C(=O)O)C(=O)O [^18F-4]
[1]
  logD at 2 min: -3.34 ± 0.02
LNCaP xenografts; 1 h after injection, unblocked
  T/B (tumor-to-blood ratio): 8.70 ± 1.74
  T/K (tumor-to-kidney ratio): 0.04 ± 0.02
  T/M (tumor-to-muscle ratio): 23.40 ± 5.00
  adrenal uptake: 6.66 ± 2.33 %ID/g
  blood uptake: 0.74 ± 0.15 %ID/g
  bone uptake: 0.76 ± 0.57 %ID/g
  brain uptake: 0.05 ± 0.01 %ID/g
  fat uptake: 1.05 ± 0.49 %ID/g
  heart uptake: 0.34 ± 0.08 %ID/g
  intestine uptake: 0.48 ± 0.22 %ID/g
  kidney uptake: 164.33 ± 50.20 %ID/g
  liver uptake: 1.28 ± 0.18 %ID/g
  lung uptake: 1.67 ± 0.47 %ID/g
  muscle uptake: 0.28 ± 0.07 %ID/g
  pancreas uptake: 0.68 ± 0.50 %ID/g
  spleen uptake: 3.36 ± 1.08 %ID/g
  stomach uptake: 0.15 ± 0.03 %ID/g
  testes uptake: 0.67 ± 0.27 %ID/g
LNCaP xenografts; [2]
  tumor uptake compared with ^18F-DCFPyL: lower tumor uptake than ^18F-DCFPyL
LNCaP xenografts; [3]
  T/B (tumor-to-blood ratio): 0.75 ± 0.18
  T/K (tumor-to-kidney ratio): 0.11 ± 0.03
  T/M (tumor-to-muscle ratio): 1.91 ± 0.46
  adrenal uptake: 0.26 ± 0.15 %ID/g
  blood uptake: 0.24 ± 0.11 %ID/g
  bone uptake: 0.56 ± 0.20 %ID/g
  brain uptake: 0.02 ± 0.01 %ID/g
  fat uptake: 0.04 ± 0.03 %ID/g
  heart uptake: 0.09 ± 0.04 %ID/g
  intestine uptake: 0.18 ± 0.04 %ID/g
  kidney uptake: 1.62 ± 0.73 %ID/g
  liver uptake: 0.90 ± 0.25 %ID/g
  lung uptake: 0.19 ± 0.09 %ID/g
  muscle uptake: 0.11 ± 0.08 %ID/g
  pancreas uptake: 0.08 ± 0.03 %ID/g
  spleen uptake: 0.13 ± 0.06 %ID/g
  stomach uptake: 0.06 ± 0.02 %ID/g
  testes uptake: 0.08 ± 0.03 %ID/g
  tumor uptake: 0.18 ± 0.11 %ID/g
LNCaP xenografts; 1 h after injection, unblocked, listed as 4
  tumor uptake: 6.3 ± 0.8 %ID/g
LNCaP xenografts; 1 h after injection, unblocked, listed as [18F]4
  tumor uptake: 6.26 ± 0.82 %ID/g
PSMA
  Ki: 27.6 ± 3.8 nM

## C[N+](C)(Cc1cn(CC(=O)NC[C@H]2CC[C@H](C(=O)N[C@@H](Cc3ccc4ccccc4c3)C(=O)NCCCC[C@H](NC(=O)N[C@@H](CCC(=O)O)C(=O)O)C(=O)O)CC2)nn1)C[B-](F)(F)F [^18F-5]
[1]
  logD at 2 min: -3.52 ± 0.21
LNCaP xenografts; 1 h after injection
  intestinal activity compared with ^18F-DCFPyL: significantly higher intestinal activity than ^18F-DCFPyL
LNCaP xenografts; 1 h after injection, unblocked
  T/B (tumor-to-blood ratio): 17.12 ± 5.40
  T/K (tumor-to-kidney ratio): 0.21 ± 0.08
  T/M (tumor-to-muscle ratio): 49.67 ± 28.45
  adrenal uptake: 2.89 ± 1.94 %ID/g
  blood uptake: 0.89 ± 0.42 %ID/g
  bone uptake: 0.34 ± 0.14 %ID/g
  brain uptake: 0.04 ± 0.01 %ID/g
  fat uptake: 0.83 ± 0.33 %ID/g
  heart uptake: 0.31 ± 0.11 %ID/g
  intestine uptake: 12.96 ± 4.61 %ID/g
  kidney uptake: 73.86 ± 35.21 %ID/g
  liver uptake: 1.14 ± 0.48 %ID/g
  lung uptake: 1.21 ± 0.48 %ID/g
  muscle uptake: 0.36 ± 0.18 %ID/g
  pancreas uptake: 0.30 ± 0.17 %ID/g
  spleen uptake: 3.21 ± 1.73 %ID/g
  stomach uptake: 0.37 ± 0.45 %ID/g
  testes uptake: 0.74 ± 0.55 %ID/g
  tumor uptake: 13.96 ± 5.20 %ID/g
LNCaP xenografts; [2]
  tumor uptake compared with ^18F-DCFPyL: No statistically significant differences
LNCaP xenografts; [3]
  T/B (tumor-to-blood ratio): 0.95 ± 0.10
  T/K (tumor-to-kidney ratio): 0.41 ± 0.09
  T/M (tumor-to-muscle ratio): 2.85 ± 0.70
  adrenal uptake: 0.34 ± 0.09 %ID/g
  blood uptake: 0.44 ± 0.02 %ID/g
  bone uptake: 0.17 ± 0.03 %ID/g
  brain uptake: 0.02 ± 0.00 %ID/g
  fat uptake: 0.16 ± 0.06 %ID/g
  heart uptake: 0.15 ± 0.00 %ID/g
  intestine uptake: 12.36 ± 0.55 %ID/g
  kidney uptake: 1.04 ± 0.14 %ID/g
  liver uptake: 0.67 ± 0.13 %ID/g
  lung uptake: 0.39 ± 0.01 %ID/g
  muscle uptake: 0.15 ± 0.02 %ID/g
  pancreas uptake: 0.13 ± 0.06 %ID/g
  spleen uptake: 0.21 ± 0.02 %ID/g
  stomach uptake: 0.12 ± 0.10 %ID/g
  testes uptake: 0.24 ± 0.05 %ID/g
  tumor uptake: 0.41 ± 0.04 %ID/g
PSMA
  Ki: 1.14 ± 0.26 nM
